Assay results published in ChEMBL document CHEMBL1201862, “PubChem BioAssay data set” (2004).
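Exposure lasted 48 hours, with cells grown in 96-well plates and compounds tested at five concentrations. GI50 marks 50% less growth.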 Calls of active or inactive are those of the source. Rule as the data show it: active = GI50 up to about 1.1 µM and inactive = higher.

Legend:
Test in all cases: inhibition of tumour cell growth, NCI panel, 48 h
[1] = test system: HL-60
[2] = test system: HCT-116
[3] = test system: U-251
[4] = test system: SW-620
[5] = test system: K562
[6] = test system: HCT-15
[7] = test system: SK-MEL-5
[8] = test system: SNB-75
[9] = test system: HOP-92
[10] = test system: SF-295
[11] = test system: MCF7
[12] = test system: M14
[13] = test system: UO-31
[14] = test system: PC-3
[15] = test system: NCI/ADR-RES
[16] = test system: COLO 205
[17] = test system: OVCAR-8
[18] = test system: SF-268
[19] = test system: MOLT-4
[20] = test system: A549

CC(C)Cc1ccc(C(C)CC2=CCC(CN(C)C)C2=O)cc1 (stereo not given)
GI50 [1]: 1.96 µM (inactive)
GI50 [2]: 4.17 µM (inactive)
GI50 [3]: 6.34 µM (inactive)
GI50 [4]: 2.12 µM (inactive)
GI50 [5]: 2.25 µM (inactive)
GI50 [6]: 2.64 µM
GI50 [7]: 15.3 µM (inactive)
GI50 [8]: 15.8 µM (inactive)
GI50 [9]: 2.95 µM (inactive)
GI50 [10]: 17.1 µM (inactive)
GI50 [11]: 1.17 µM (inactive)
GI50 [12]: 4.7 µM (inactive)
GI50 [13]: 16.4 µM (inactive)
GI50 [14]: 14.9 µM (inactive)
GI50 [15]: 16.9 µM (inactive)
GI50 [16]: 2.69 µM (inactive)
GI50 [17]: 7.41 µM (inactive)
GI50 [18]: 14.9 µM (inactive)
GI50 [19]: 2.34 µM (inactive)
GI50 [20]: 18.3 µM (inactive)
